Reference: US20180200257A1, “METHODS FOR THE TREATMENT OF INFLAMMATORY DISORDERS” (Galapagos NV, priority 2015, published 2018)

Tested on: subjects with moderately to severely active RA who have an inadequate response to methotrexate (MTX)
Assay: Study 1 (add-on to MTX) - ACR responses (ACR20/50/70)
Type: in vivo, human
Source text: The terms “ACR20”, “ACR50” and “ACR70” as used herein are scores which indicate how much a patient's rheumatoid arthritis has improved according to criteria set out by the American College of Rheumatology (ACR). The ACR score represents a percentage. An ACR20 score means that a person's RA has improved by 20%, an ACR50 score means it has improved by 50%, and an ACR70 score means it has improved by 70%. Specifically, to qualify for an ACR20 score, a person with RA must have at least 20% fewer tender joints and at least 20% fewer swollen joints. In addition the patient must show a 20% improvement in at least three of the following five areas: the person's overall (global) assessment of his or her own RA, the physician's global assessment of the person's RA, the person's assessment of his or her own pain, the person's assessment of his or her own physical functioning, and the results of an erythrocyte sedimentation rate or C-reactive protein (CRP) blood test (both of which test for inflammation). ACR50 and ACR70 scores use the same criteria but require 50% and 70% improvement, respectively, (Felson et al., 1993). In the data presented herein the CRP blood test is used.
Double-blind, placebo-controlled add on study in subjects with moderately to severely active RA who have an inadequate response to methotrexate (MTX) (oral or parenteral).
595 subjects randomized to one of 6 dose regimens of Compound 1 (dosed as [Compound 1:HCl:3H2O]) (3 dose levels administered either once or twice daily) or placebo on top of each subject's stable dose of MTX.
Compound 1 (dosed as [Compound 1:HCl:3H2O]) is dosed for twelve weeks once daily (q.d.) (50 mg, 100 mg or 200 mg) or twice daily (b.i.d.) (25 mg, 50 mg or 100 mg); or placebo.
At Week 12, the subjects on placebo who have not achieved 20% improvement in swollen joint count (SJC66) and tender joint count (TJC68) are re-randomized automatically to receive Compound 1 (dosed as a [Compound 1:HCl:3H2O]) either at 100 mg q.d. or 50 mg b.i.d. doses in a blinded fashion; subjects on 50 mg q.d. who have not achieved 20% improvement in SJC66 and TJC68 will be assigned to 100 mg q.d. and subjects on 25 mg b.i.d. that have not achieved a 20% improvement in SJC66 and TJC68 will be assigned to 50 mg b.i.d. Subjects who switch treatment at week 12 are handled as if they discontinued at week 12 for the purpose of statistical analysis, whereas subjects in the other groups will maintain their randomized treatment until Week 24.
The American College of Rheumatology (ACR) composite score, which evaluates clinical improvement relative to an initial assessment, is a commonly accepted efficacy end point for clinical trials in patients with rheumatoid arthritis. The ACR score correspond to a percentage improvement in pre-set parameters, and therefore measures the evolution of the disease in a patient. For example, ACR20 denotes at least 20% improvement in tender and swollen joint counts and in three of the following end points: global assessment by the patient, global assessment by the doctor, C reactive protein (CRP), patient's pain Visual Analogue Scale and Health Assessment Questionnaire Score. The number of swollen joints, ESR and CRP correlate with radiographic progression of joint damage, whereas tender joint counts, as well as global assessments by doctors and patients, and patients' reports of pain, are sensitive to change in clinical outcomes. Physical function, as assessed by the Health Assessment Questionnaire Score, is a potent predictor of the risk of disability in rheumatoid arthritis (Felson and American College of Rheumatology Committee to Reevaluate Improvement Criteria, 2007; Felson et al., 1993).
In particular, the list of parameters used to assess ACR score can be found in the Table XCVI below and the results of the ACR responses at week 12 via either NRI or LOCF are shown in the tables below. The Hommel-corrected p-value for the pairwise comparisons of each group with placebo is shown. […]

[1] = 100 mg q.d., week 12, 12 weeks results
[2] = 100 mg q.d., week 12, 24 weeks results
[3] = 100 mg q.d., week 16, 24 weeks results
[4] = 100 mg q.d., week 20, 24 weeks results
[5] = 100 mg q.d., week 24, 24 weeks results
[6] = 100 mg q.d., at week 1, 12 weeks results
[7] = 100 mg q.d., at week 1, 24 weeks results
[8] = 100 mg q.d., week 8, 12 weeks results
[9] = 200 mg q.d., week 2, 12 weeks results
[10] = 200 mg q.d., week 2, 24 weeks results
[11] = 200 mg q.d., week 4, 12 weeks results
[12] = 200 mg q.d., week 4, 24 weeks results
[13] = 200 mg q.d., week 8, 24 weeks results
[14] = 200 mg q.d., week 12, 12 weeks results
[15] = 200 mg q.d., week 12, 24 weeks results
[16] = 200 mg q.d., week 16, 24 weeks results
[17] = 200 mg q.d., week 20, 24 weeks results
[18] = 200 mg q.d., week 24, 24 weeks results
[19] = 200 mg q.d., at week 1, 12 weeks results
[20] = 200 mg q.d., at week 1, 24 weeks results
[21] = 200 mg q.d., week 8, 12 weeks results

O=C(Nc1nc2cccc(-c3ccc(CN4CCS(=O)(=O)CC4)cc3)n2n1)C1CC1 [Compound 1, cyclopropanecarboxylic acid {5-[4-(1,1-dioxo-thiomorpholin-4-ylmethyl)-phenyl]-[1,2,4]triazolo[1,5-a]pyridin-2-yl}-amide]
ACR70 (LOCF) [1]: 22.4%
ACR70 (NRI) [1]: 20.0%
ACR20 (LOCF) [2]: 67.1%
ACR20 (NRI) [2]: 62.4%
ACR50 (LOCF) [2]: 41.2%
ACR50 (NRI) [2]: 38.8%
ACR70 (LOCF) [2]: 22.4%
ACR70 (NRI) [2]: 20.0%
ACR20 (LOCF) [3]: 69.4%
ACR20 (NRI) [3]: 64.7%
ACR50 (LOCF) [3]: 55.3%
ACR70 (LOCF) [3]: 27.1%
ACR20 (LOCF) [4]: 76.5%
ACR20 (NRI) [4]: 69.4%
ACR50 (LOCF) [4]: 50.6%
ACR70 (LOCF) [4]: 32.9%
ACR20 (LOCF) [5]: 72.9%
ACR20 (NRI) [5]: 60.0%
ACR50 (LOCF) [5]: 54.1%
ACR70 (LOCF) [5]: 37.6%
ACR20 (LOCF) [6]: 32.9%
ACR20 (NRI) [6]: 34.1%
ACR50 (LOCF) [6]: 5.9%
ACR50 (NRI) [6]: 5.9%
ACR70 (LOCF) [6]: 0.0%
ACR70 (NRI) [6]: 0.0%
ACR20 (LOCF) [7]: 34.1%
ACR20 (NRI) [7]: 34.1%
ACR50 (LOCF) [7]: 5.9%
ACR50 (NRI) [7]: 5.9%
ACR70 (LOCF) [7]: 0.0%
ACR70 (NRI) [7]: 0.00%
ACR20 (LOCF) [8]: 63.5%
ACR20 (NRI) [8]: 63.5%
ACR50 (LOCF) [8]: 35.3%
ACR50 (NRI) [8]: 34.1%
ACR70 (LOCF) [8]: 23.5%
ACR70 (NRI) [8]: 22.4%
ACR20 (LOCF) [9]: 48.8%
ACR20 (NRI) [9]: 48.8%
ACR50 (LOCF) [9]: 11.6%
ACR50 (NRI) [9]: 11.6%
ACR70 (LOCF) [9]: 5.8%
ACR70 (NRI) [9]: 5.8%
ACR20 (LOCF) [10]: 48.8%
ACR20 (NRI) [10]: 48.8%
ACR50 (LOCF) [10]: 11.6%
ACR50 (NRI) [10]: 11.6%
ACR70 (LOCF) [10]: 5.8%
ACR70 (NRI) [10]: 5.8%
ACR20 (LOCF) [11]: 55.8%
ACR20 (NRI) [11]: 55.8%
ACR50 (LOCF) [11]: 16.3%
ACR50 (NRI) [11]: 17.4%
ACR70 (LOCF) [11]: 4.7%
ACR70 (NRI) [11]: 4.7%
ACR20 (LOCF) [12]: 55.8%
ACR20 (NRI) [12]: 55.8%
ACR50 (LOCF) [12]: 17.4%
ACR50 (NRI) [12]: 17.4%
ACR70 (LOCF) [12]: 4.7%
ACR70 (NRI) [12]: 4.7%
ACR20 (LOCF) [13]: 69.8%
ACR20 (NRI) [13]: 69.8%
ACR50 (LOCF) [13]: 34.9%
ACR50 (NRI) [13]: 34.9%
ACR70 (LOCF) [13]: 18.6%
ACR70 (NRI) [13]: 18.6%
ACR20 (LOCF) [14]: 70.9%
ACR20 (NRI) [14]: 68.6%
ACR50 (LOCF) [14]: 44.2%
ACR50 (NRI) [14]: 43.0%
ACR70 (LOCF) [14]: 24.4%
ACR70 (NRI) [14]: 24.4%
ACR20 (LOCF) [15]: 70.9%
ACR20 (NRI) [15]: 69.8%
ACR50 (LOCF) [15]: 44.2%
ACR50 (NRI) [15]: 43.0%
ACR70 (LOCF) [15]: 24.4%
ACR70 (NRI) [15]: 24.4%
ACR20 (LOCF) [16]: 74.4%
ACR20 (NRI) [16]: 73.3%
ACR50 (LOCF) [16]: 50.0%
ACR70 (LOCF) [16]: 26.7%
ACR20 (LOCF) [17]: 76.7%
ACR20 (NRI) [17]: 73.3%
ACR50 (LOCF) [17]: 54.7%
ACR70 (LOCF) [17]: 24.4%
ACR20 (LOCF) [18]: 77.9%
ACR20 (NRI) [18]: 73.3%
ACR50 (LOCF) [18]: 54.7%
ACR70 (LOCF) [18]: 31.4%
ACR20 (LOCF) [19]: 25.6%
ACR20 (NRI) [19]: 27.9%
ACR50 (LOCF) [19]: 4.7%
ACR50 (NRI) [19]: 4.7%
ACR70 (LOCF) [19]: 1.2%
ACR70 (NRI) [19]: 1.2%
ACR20 (LOCF) [20]: 27.9%
ACR20 (NRI) [20]: 27.9%
ACR50 (LOCF) [20]: 4.7%
ACR50 (NRI) [20]: 4.7%
ACR70 (LOCF) [20]: 1.2%
ACR70 (NRI) [20]: 1.2%
ACR20 (LOCF) [21]: 68.6%
ACR20 (NRI) [21]: 68.6%
ACR50 (LOCF) [21]: 33.7%
ACR50 (NRI) [21]: 33.7%
ACR70 (LOCF) [21]: 18.6%
